We go through three molecules from US7691863B2, “Pyrazine-2-carboxamide derivatives as CB2 receptor modulators” (Hoffman-La Roche Inc., priority 2006, dated 2010).

T1 sequence (P34972 whole entry): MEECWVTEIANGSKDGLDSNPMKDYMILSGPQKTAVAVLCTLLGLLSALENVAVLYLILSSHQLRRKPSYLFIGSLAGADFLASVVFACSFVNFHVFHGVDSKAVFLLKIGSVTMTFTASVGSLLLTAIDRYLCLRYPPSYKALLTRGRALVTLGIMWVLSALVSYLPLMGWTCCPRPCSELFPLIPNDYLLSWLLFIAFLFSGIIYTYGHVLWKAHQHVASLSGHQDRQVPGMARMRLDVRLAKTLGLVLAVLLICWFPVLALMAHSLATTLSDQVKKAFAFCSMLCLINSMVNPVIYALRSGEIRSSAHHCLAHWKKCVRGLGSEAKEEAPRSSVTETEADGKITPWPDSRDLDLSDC

The assay concerns the target T1, human cannabinoid CB2 receptor (Homo sapiens, UniProt P34972).
T1 construct: expressed in transfected cells; host or cells: human embryonic kidney (HEK) cells, transient, Semliki Forest virus system
Nature of the assay: Affinity for cannabinoid CB2 receptors, [3H]-CP-55,940 radioligand binding on membrane preparations of transfected HEK cells. Conditions: [3H]-CP-55,940 as radioligand, HEK cell membranes. Here is the method:
The affinity of the compounds of the invention for cannabinoid CB2 receptors was determined using membrane preparations of human embryonic kidney (HEK) cells in which the human cannabinoid CB2 receptor is transiently transfected using the Semliki Forest virus system in conjunction with [3H]-CP-55,940 as radioligand. After incubation of a cell membrane preparation with the [3H]-ligand, with or without addition of compounds of the invention, separation of bound and free ligand was performed by filtration over glassfiber filters. Radioactivity on the filter was measured by liquid scintillation counting.
As to “6-Cyclopropylmethoxy-5-pyrrolidin-1-yl-pyrazine-2-carboxylic acid ((S)-1-hydroxymethyl-3-methyl-butyl)-amide [Example 4]”, the affinity, expressed as Ki, was 0.044 µM. The molecule “2-Ethyl-2-{[5-pyrrolidin-1-yl-6-(2,2,2-trifluoro-ethoxy)-pyrazine-2-carbonyl]-amino}-pentanoic acid methyl ester [Example 14]” showed a Ki of 0.063 µM.

For the molecule `CC(C)C[C@@H](CO)NC(=O)c1cnc(OCC2CC2)c(N2CCCCC2)n1` [Example 44, 5-Cyclopropylmethoxy-6-piperidin-1-yl-pyrazine-2-carboxylic acid ((S)-1-hydroxymethyl-3-methyl-butyl)-amide], the Ki is 0.043 µM.

Broadly, the Ki is a dissociation constant, usually derived from enzyme kinetics or from competition with a known ligand.
